Assay results taken from patent US12605418B2, “Chebulinic acid and its enriched fraction from the fruits of Terminalia chebula for treatment of benign prostatic hyperplasia (BPH) and its preparation thereof” (COUNCIL OF SCIENTIFIC AND INDUSTRIAL RESEARCH, priority 2020, dated 2026).
“Also recorded” adds a separate entry of the source.

Legend:
Type in all cases: in vivo, male Sprague-Dawley (SD) rats
[1] = system: Testosterone-induced BPH rats; experiment: Prostate weight and prostate weight index (PI) in testosterone-induced BPH rat model; settings: for Prostatic weight: BPH induced rats, vs induced group (FIGS. 3 and 6); for Prostate weight index (PI): oral once a day for 21 days, CA 100 mg/kg, CAEF 100/200 mg/kg, Finasteride 3 mg/kg, vs Testosterone induced group (FIG. 3)
Procedure: 12-14-week-old (3 month) male Sprague-Dawley (SD) rats with initial body weights of 200-220 g were taken from National Animal Laboratory Centre, CSIR-Central drug research institute (CDRI), Lucknow. The animals were maintained in conditions in accordance with the rules and regulation of animal ethical committee. These rats were housed in a pathogen-free room at 23±2° C. and a relative humidity of 70% with an alternating 12 h light/dark cycle. To assess the therapeutic effect of Chebulinic Acid (CA) and Chebulinic acid Enriched fraction (CAEF) on Benign Prostatic Hyperplasia (BPH), rat BPH model has been successfully generated by testosterone induction method. For model induction of BPH, Orchiectomy (Surgical removal of Testis) of rats was performed and then animals were left for ten days to recover. Now BPH was induced through the daily subcutaneous injections of Testosterone (5 mg/kg & 6.25 mg/ml in Corn Oil) at the inguinal region for 28 days continuously. While the treatment group received 7 days continuous administration of Testosterone and then Testosterone+CA (100 mg/kg B.W) or Testosterone+CAEF (100/200 mg/kg B.W.) or Testosterone+Finasteride (3 mg/kg) were administered orally once a day to these animals for next 21 days (FIG. 3). In another experiment the treatment group received 7 days continuous administration of Testosterone and then Testosterone+CAEF (100 mg/kg B.W.) administered orally once a day to these animals for next 4 weeks (group 1) 8 weeks (group 2) and 12 weeks (group 3) (FIG. 6). After that these animals were left for fasting overnight and sacrificed next day; their prostatic as well as other reproductive organs were dissected out. Portions of the prostatic ventral lobes were stored in 4% paraformaldehyde for histological and immuno-histochemical processing. Half of the remaining prostate tissue was stored in RNA later and the other half was stored at −80° C. for subsequent biochemical and molecular experiments. Blood samples were obtained from the caudal vena cava and collected in serum separating tubes. Testosterone induced BPH animal models were sacrificed after the simultaneous treatment of 21 days. The intact prostate tissue was dissected and removed carefully from these sacrificed animals. Now the prostate weight (PW) was measured and the prostate index (PI) was calculated as PW (mg)/Body Weight (gm)×100. Data were expressed as the mean±SEM of four animals per group (n=4 per group). The values were analysed using one-way analysis of variance. Values were considered statistically significant at p<0.05.

anti-apoptotic markers = experiment: Anti-apoptotic markers in BPH rats (FIGS. 8-13, summary); settings: summary of FIGS. 8-13
Procedure: (§1) To assess the therapeutic effect of Chebulinic Acid (CA) and Chebulinic acid Enriched fraction (CAEF) on Benign Prostatic Hyperplasia (BPH), rat BPH model has been successfully generated by testosterone induction method. For model induction of BPH, Orchiectomy (Surgical removal of Testis) of rats was performed and then animals were left for ten days to recover. Now BPH was induced through the daily subcutaneous injections of Testosterone (5 mg/kg & 6.25 mg/ml in Corn Oil) at the inguinal region for 28 days continuously. While the treatment group received 7 days continuous administration of Testosterone and then Testosterone+CA (100 mg/kg B.W) or Testosterone+CAEF (100/200 mg/kg B.W.) or Testosterone+Finasteride (3 mg/kg) were administered orally once a day to these animals for next 21 days (FIG. 3). In another experiment the treatment group received 7 days continuous administration of Testosterone and then Testosterone+CAEF (100 mg/kg B.W.) administered orally once a day to these animals for next 4 weeks (group 1) 8 weeks (group 2) and 12 weeks (group 3) (FIG. 6). After that these animals were left for fasting overnight and sacrificed next day; their prostatic as well as other reproductive organs were dissected out. Portions of the prostatic ventral lobes were stored in 4% paraformaldehyde for histological and immuno-histochemical processing. […]

[2] = Testosterone serum level in BPH rats; settings: BPH induced rats after treatment
[3] = system: Prostate-Specific Antigen (PSA); experiment: PSA expression in prostate tissue and serum of BPH rats (western blot); settings: three weeks, CA 100 mg/kg, CAEF 200 mg/kg, CAEF formulation 200 mg/kg
[4] = system: prostatic tissues in testosterone induced BPH rats; experiment: Histopathological examination (H&E) of prostate tissue in testosterone-induced BPH rats; settings: for Histological conditions / architecture of the prostate: BPH induced rats (FIG. 4)
PSA = PSA level in serum of BPH rats (ELISA); settings: summary statement, FIGS. 5 and 7
Procaspase 3 = experiment: Expression of Procaspase 3 in BPH induced rat model; settings: vs induced animal model; finasteride positive control
[5] = system: Poly [ADP-ribose] polymerase 1 (PARP1); experiment: Expression of PARP1 in BPH induced rat model; settings: vs BPH induced group; finasteride positive control
Procedure: as §1

[6] = system: Vascular endothelial growth factor (VEGF); experiment: Expression of VEGF in BPH induced rat model; settings: within three weeks; vs non-treated induced BPH group; finasteride positive control

Row | SMILES | Prostatic weight index compared with normal control group ([1]; 100/200 mg/kg dose (FIG. 3) and 100 mg/kg of CAEF (FIG. 6)) | Prostatic weight [1] | Prostatic weight ([1]; listed as Chebulinic acid) | Prostate weight index (PI) [1] | Development of prostatic hyperplasia ([1]; testosterone-induced BPH rats) | Anti-apoptotic markers (anti-apoptotic markers) | Level of testosterone in sera [2] | PSA expression in prostate tissue [3] | PSA expression in serum [3] | Histological conditions / architecture of the prostate [4] | Histological conditions / architecture of the prostate ([4]; listed as Chebulinic acid) | Glandular hyperplasia of the prostate (histopathological examination) ([4]; BPH rats) | Prostatic lumen area ([4]; H&E, CA/CAEF 100/200 mg/kg, vs Induced BPH group (FIG. 4)) | Level of PSA in sera (PSA) | Expression of Procaspase 3 (Procaspase 3) | Expression of PARP1 [5] | Expression of VEGF [6]
1 | O=C(O)CC1C(=O)OC2C(COC(=O)c3cc(O)c(O)c(O)c3)OC(OC(=O)c3cc(O)c(O)c(O)c3)C(OC(=O)c3cc(O)c(O)c4c3C1C(O)C(=O)O4)C2OC(=O)c1cc(O)c(O)c(O)c1 [CA, 1.3,6-tri-O-galloyl-2,4-chebuloyl-beta-D-glucose] | quite close to the normal control group | reduced significantly; also recorded: significant reduction | decreased the prostate weight | significantly decreased; also recorded: reduced significantly | significantly suppressed; also recorded: suppressed the development of prostatic hyperplasia considerably | down-regulated | reduced level | down-regulated | down-regulated | improved histological conditions | restored the altered histological architecture | mild glandular hyperplasia | increased prostatic lumen areas significantly | reduced level | – | – | –
2 | CC(C)(C)NC(=O)[C@H]1CC[C@H]2[C@@H]3CC[C@H]4NC(=O)C=C[C@]4(C)[C@H]3CC[C@]12C [Finasteride] | – | – | – | close to the 200 mg/kg CA/CAEF treated group | – | – | – | – | – | – | – | – | – | – | decreased expression | reduced expression | reduced expression
